Reference: patent publication US10858331B1, “Ester nitrates derivatives of aromatic aldehydes with multiple pharmalogic properties to treat sickle cell disease” (VIRGINIA COMMONWEALTH UNIVERSITY, priority 2013, dated 2020)

Tests used:
[1] = system: SS cells; assay: In vitro RBC anti-sickling (morphological) study with SS cells; type: cell-based, human; conditions: SS cells, 1 h air then 4% O2, 37° C., 5 h; for inhibition at 500 µM / inhibition at 1000 µM / inhibition at 2000 µM / inhibition at 5000 µM: Homo sapiens, read-out: Inhibition of sickled cells; for inhibition at 1000 µM: 1.0 mM; for inhibition at 2000 µM: 2.0 mM; for inhibition at 5000 µM: 5.0 mM
Procedure: In vitro RBC morphological (anti-sickling) analysis was conducted at the Children's Hospital of Philadelphia (by Drs. Toshio Asakura and Osheiza Abdulmalik). The anti-sickling effects of 5HMF, TD-7 HCl, TD-7, TD-1, and TD-7-1 were studied by incubating suspensions of SS cells in the absence or presence of three different concentrations of the effectors in the presence of air for 1 h at 37° C. followed by incubation under 4% oxygen at 37° C. for 5 h. All samples were pre-incubated for 1 h with various compounds and then incubated under 4% O2 for 5 h. […] Table 5 represents the concentrations of the effectors along with the % inhibition of sickling cells. The hemolysates that had been prepared from SS cells after incubation with test compounds were also subjected to cation-exchange HPLC as previously reported (Abdulmalik et al., 2005).

[2] = biological target: T1, Hb (Homo sapiens, UniProt P68871+P69905); assay: Oxygen equilibrium curve (OEC) study with normal whole blood (AA); type: cell-based; conditions: for ΔP50: versus DMSO control
T1 construct: normal whole blood (AA); from tissue; host or cells: normal whole blood (AA), red blood cells
T1 sequence (P69905 2-142 limits assumed): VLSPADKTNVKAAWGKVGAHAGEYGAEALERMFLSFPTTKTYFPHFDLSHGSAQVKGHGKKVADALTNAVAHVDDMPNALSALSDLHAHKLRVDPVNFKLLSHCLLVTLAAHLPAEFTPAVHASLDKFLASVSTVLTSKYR
T1 sequence (P68871 2-147 limits assumed): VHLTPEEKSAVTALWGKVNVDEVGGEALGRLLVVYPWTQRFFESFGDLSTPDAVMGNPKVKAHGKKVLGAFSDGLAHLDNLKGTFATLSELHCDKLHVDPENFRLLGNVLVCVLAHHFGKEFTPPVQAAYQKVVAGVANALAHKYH
Procedure: (§1) Studies were performed on compounds TD-7, TD-7-1, TD-8, TD-8-1, TD-9 and TD-9-1 using 100 mM stock solution in DMSO and normal whole blood (AA). TD-7, TD-8 and TD-9 are compounds with a hydroxymethyl group on the pyridine ring, while TD-7-1, TD-8-1 and TD-9-1 are the respective nitrate ester derivatives. The whole blood samples had hematocrit values ranging from 29-36%, and cell-free purified Hb of 10-12 g/dL in the absence or presence of effectors solubilized in DMSO at 2 mM or in some cases with varying compound concentration. The blood samples were incubated in an IL 237 tonometer (Instrumentation Laboratories, Inc., Lexington, Mass.) for about 5-7 min at 37° C. against a gas mixture containing O2 concentrations of 0.804%, 2.935% and 5.528% and allowed to equilibrate at O2 tensions of 6, 20 and 40 mmHg. After equilibration, the sample was removed via syringe and aspirated into a ABL 700 series table top automated blood gas analyzer (Radiometer America, Inc., Westlake, Ohio) to determine total hemoglobin (tHb), hematocrit (Hct), pH, pCO2, partial pressure of oxygen (pO2), and the Hb oxygen saturation values (sO2). Similar procedures were followed for concentration and time dependence studies. The measured values of pO2 and sO2 at each oxygen saturation level were then subjected to a non-linear regression analysis using the program Scientist (Micromath, Salt Lake City, Utah) with the following equation: […]
This equation was used to calculate P50 and Hill coefficient (N) values. Corresponding control experiments without the test compound (P50control) but containing DMSO were also performed.

[3] = biological target: T1, Hb; assay: Time-dependent OEC study with whole blood; type: cell-based; conditions: 0.5 mM; for P50: whole blood (Hct~34%); for N (Hill coefficient) / ΔP50: whole blood
Procedure: as §1
All samples were pre-incubated with whole blood (Hct˜34%) with the specified compounds 0.5 mM concentrations for the specified time. The control experiment without test compound (P50 (control)) contains the same concentration of DMSO used to solubilize the test solution (P50 (sample)).

[4] = biological target: T2, cell-free Hb (Homo sapiens, UniProt P68871+P69905); assay: OEC study with normal cell-free Hb; type: biochemical; conditions: cell-free Hb 12 mg/mL, 2 mM compound; for N (Hill coefficient) / P50: n = 1; for ΔP50: versus control P50 12.5
T2 construct: Hemoglobin was prepared from centrifuging human blood; from tissue; host or cells: human blood (red cells lysed, Hb purified on DEAE sephacel)
T2 sequence (P69905 2-142 limits assumed): as the sequence (P69905 2-142 limits assumed) above
T2 sequence (P68871 2-147 limits assumed): as the sequence (P68871 2-147 limits assumed) above
Procedure: as §1
Hemoglobin was prepared from centrifuging human blood at 2500 rpms for 20 min at 4° C. The supernatant solution, debris and plasma were discarded from the centrifuge bottles, leaving behind RBCs. The RBCs were washed thrice with an excess volume of 0.9% NaCl, and once with 1.0% NaCl, each time centrifuging and discarding the supernatant solution. The RBCs were pooled together into a chilled flask and hemolyzed to free Hb by adding 1-2 volume excess of 50 mM Tris buffer, pH 8.6 (containing EDTA). The mixture was allowed to stand in ice for 30 min with occasional stirring. The Hb solution was centrifuged at 10,000 rpm for 2 h at 4° C. The supernatant Hb solution was pooled into a chilled flask and NaCl (40-60 mg/mL Hb solution) was slowly added with stirring. Hemoglobin solution was centrifuged at 10,000 rpm for 2 h at 4° C. to remove any cell stroma remnants. The clear supernatant Hb solution was pooled into a chilled flask and the “syrupy” pellet was discarded. Hemoglobin solution was dialyzed against 50 mM Tris buffer, pH 8.6 (containing EDTA) at 4° C. to remove NaCl and/or other low molecular weight impurities. Strips of standard cellulose dialysis tubing that had been washed 3-4 times and boiled for 10 min in deionized water were used for dialysis. The dialyzed Hb was further purified by ion-exchange chromatography using DEAE sephacel to exclude 2,3-DPG. The resin was equilibrated with 50 mM Tris buffer, pH 8.6, and the Hb solution was run through the column with 50 mM Tris buffer, pH 8.6 (containing EDTA). The pooled fractions were concentrated with an Amicon stirred cell (Amicon, Model 402), to a final HbA concentration of about 80-120 mg/mL. Concentrated HbA was stored at −80° C.
As a result of the low left-shifting activities of TD-8 and TD-9, as well as the nitrate ester derivatives, we further evaluated the activity of the compounds TD-1, TD-7, TD-7-1, TD-8, and TD-9 using cell-free Hb (devoid of any proteins, enzymes, plasma and cell membranes) to determine whether plasma protein or RBC membrane could have any effect on compound biological activity. Previous studies have shown limited effect of plasma protein and RBC membrane on SHMF activity. The same tonometry procedure used on whole blood was used with the cell-free hemoglobin using 2 mM compound and 12 mg/mL of Hb.

[5] = 2 mM compound, 1.5 h incubation
[6] = 2 mM compound, 1.5 h incubation, 37° C.

SMILES	inhibition at 500 µM ([1]; 0.5 mM) [%]	inhibition at 1000 µM [1] [%]	inhibition at 2000 µM [1] [%]	inhibition at 5000 µM [1] [%]	N (Hill coefficient) [2, 5]	P50 [2, 6]	ΔP50 [2, 5] [mmHg]	P50 ([3]; incubation 1 h) [mmHg]	P50 ([3]; incubation 2 h) [mmHg]	P50 ([3]; incubation 4 h) [mmHg]	P50 ([3]; incubation 6 h) [mmHg]	P50 ([3]; incubation 10 h) [mmHg]	P50 ([3]; incubation 12 h) [mmHg]	N (Hill coefficient) ([3]; incubation 1 h)	ΔP50 ([3]; incubation 1 h) [mmHg]	N (Hill coefficient) ([3]; incubation 2 h)	ΔP50 ([3]; incubation 2 h) [mmHg]	N (Hill coefficient) [4]	P50 [4] [mmHg]	ΔP50 [4] [mmHg]	further results
O=Cc1ccc(CO)o1 [Compound 5HMF, 5-(hydroxymethyl) furfural, reference compound]	4	17	35	75	1.8 ± 0.1^c†	20.2 ± 2.0^c† mmHg	−11.1	29.8 ± 0.2	29.2 ± 0.3	29.2 ± 0.1	30.0 ± 0.1	31.8 ± 0.1	32.8 ± 0.1	2.2 ± 0.1	−2.9	2.2 ± 0.1	−3.8	2.0	8.3	−4.2	N (Hill coefficient) ([3]; incubation 4 h): 2.1 ± 0.1; ΔP50 ([3]; incubation 4 h): −3.9 mmHg; N (Hill coefficient) ([3]; incubation 6 h): 2.1 ± 0.1; ΔP50 ([3]; incubation 6 h): −4.2 mmHg; N (Hill coefficient) ([3]; incubation 10 h): 2.1 ± 0.1; ΔP50 ([3]; incubation 10 h): −3.3 mmHg; N (Hill coefficient) ([3]; incubation 12 h): 2.0 ± 0.1; ΔP50 ([3]; incubation 12 h): −3.3 mmHg
COc1ccc(OCc2cccnc2)c(C=O)c1 [INN-312, reference compound]	–	–	–	–	–	–	–	–	–	–	–	–	–	–	–	–	–	–	–	–	Inhibition of sickled cells ([1]; 0.5 mM): 15%
COc1ccc(OCc2cccc(CO)n2)c(C=O)c1 [TD-7, 2-((6-(Hydroxymethyl)pyridin-2-yl)methoxy)-5-methoxybenzaldehyde]	95	95	100	100	1.3 ± 0.3^c†	14.3 ± 4.3^c† mmHg	−17.0	28.2 ± 0.9	28.2 ± 0.8	28.8 ± 0.6	29.1 ± 0.6	30.6 ± 1.0	31.1 ± 0.7	2.2 ± 0.2	−4.5	2.1 ± 0.1	−4.8	1.8	7.6	−4.9	N (Hill coefficient) ([2]; 0.1 mM compound): 2.5^d*; P50 ([2]; 0.1 mM compound): 30.1^d* mmHg; ΔP50 ([2]; 0.1 mM compound): −0.5 mmHg; N (Hill coefficient) ([2]; 0.5 mM compound): 2.1^d*; P50 ([2]; 0.5 mM compound): 25.9^d* mmHg; ΔP50 ([2]; 0.5 mM compound): −4.7 mmHg; N (Hill coefficient) ([2]; 1 mM compound): 1.7^d*; P50 ([2]; 1 mM compound): 23.2^d* mmHg; ΔP50 ([2]; 1 mM compound): −7.4 mmHg; N (Hill coefficient) ([3]; incubation 4 h): 2.1 ± 0.1; ΔP50 ([3]; incubation 4 h): −4.3 mmHg; N (Hill coefficient) ([3]; incubation 6 h): 2.0 ± 0.2; ΔP50 ([3]; incubation 6 h): −5.1 mmHg; N (Hill coefficient) ([3]; incubation 10 h): 2.0 ± 0.1; ΔP50 ([3]; incubation 10 h): −4.5 mmHg; N (Hill coefficient) ([3]; incubation 12 h): 2.0 ± 0.2; ΔP50 ([3]; incubation 12 h): −5.0 mmHg
COc1ccc(C=O)cc1OCc1cccc(CO)n1 [TD-8, 3-((6-(Hydroxymethyl)pyridine-2-yl)methoxy)-4-methoxybenzaldehyde]	14	20	38	–	1.9 ± 0.1^c†	25.9 ± 2.5^c† mmHg	−5.4	–	–	–	–	–	–	–	–	–	–	1.9	7.6	−4.9	–
COc1ccc(C=O)c(OCc2cccc(CO)n2)c1 [TD-9, 2-((6-(Hydroxymethyl)pyridin-2-yl)methoxy)-4-methoxybenzaldehyde]	26	35	57	–	1.6 ± 0.3^c†	21.1 ± 1.2^c† mmHg	−10.2	–	–	–	–	–	–	–	–	–	–	1.7	6.8	−5.7	–
COc1cc(C=O)ccc1O [vanillin, reference compound]	–	–	–	12	–	–	–	–	–	–	–	–	–	–	–	–	–	–	–	–	–
